Results taken from patent US12371454B2, “Cyclic peptide compound having Kras inhibitory action” (priority 2019, dated 2025).
pIC50: −log10 of the molar value. Starred links: 1 amine or outer side, 2 acyl side, 3 side chain; linkers in the order of their positions; H or OH if unused. Positions of bridges follow the written chain, without caps; N, C: chain ends. Non-standard residues stand in square brackets, D forms with d. Residues, ends and D or L forms follow the SMILES beside them. *: point of attachment. hPhe(3-Cl-4-CF3) = N[C@@H](CCc1ccc(C(F)(F)F)c(Cl)c1)C(=O)O; hPhe(3-F,4-CF3) = N[C@@H](CCc1ccc(C(F)(F)F)c(F)c1)C(=O)O; NMePhe(4-CF3) = CN[C@@H](Cc1ccc(C(F)(F)F)cc1)C(=O)O; hPhe(4-CF3) = N[C@@H](CCc1ccc(C(F)(F)F)cc1)C(=O)O; 3Oxa8azabicyclo(3.2.1)octane = C1CC2COCC1N2*; NMePhe(4-Me) = CN[C@@H](Cc1ccc(C)cc1)C(=O)O; X3 = CN([C@@H](CCc1ccncc1)C(=O)[*:2])[*:1]; NMedβ3hAla = C[C@H](CC(=O)[*:2])N(C)[*:1]; hPhe(4-F) = N[C@@H](CCc1ccc(F)cc1)C(=O)O; NMeGly(cPent) = CN[C@H](C(=O)O)C1CCCC1; Pro(4,4-F2) = O=C(O)[C@@H]1CC(F)(F)CN1; NMeCha = CN[C@@H](CC1CCCCC1)C(=O)O; NMeChg = CN[C@H](C(=O)O)C1CCCCC1; NMeI = CC[C@H](C)[C@H](NC)C(=O)O; NMeD = CN[C@@H](CC(=O)O)C(=O)O; NMeL = CN[C@@H](CC(C)C)C(=O)O; NMeNva = CCC[C@H](NC)C(=O)O; NMeV = CN[C@H](C(=O)O)C(C)C; d(β3hA) = C[C@@H](N)CC(=O)O; NMeS = CN[C@@H](CO)C(=O)O; Morpholide = C1CN(*)CCO1; NMeA = CN[C@@H](C)C(=O)O; Piperidide = C1CCN(*)CC1; Pyrrolidide = C1CCN(*)C1; Ac5c = NC1(C(=O)O)CCCC1; Aze = O=C(O)[C@@H]1CCN1; Ac4c = NC1(C(=O)O)CCC1; Aib = CC(C)(N)C(=O)O; Sar = CNCC(=O)O; Propyl = CCC*

Legend:
[1] = biological target: T1, Kras and SOS1 (biotin-tagged human Kras loaded with GDP, His-tagged human SOS1) (Homo sapiens, UniProt P01116, G12D); assay: Protein-protein interaction inhibition between Kras and SOS1 (KrasGl2D-SOS PPI) using AlphaScreen; assay type: binding; conditions: AlphaScreen; biotin-tagged human Kras loaded with GDP, His-tagged human SOS1; read-out: KRAS G12D-SOS PPI IC50
T1 construct: made in house; host or cells: E. coli (stated for Kras only)
Summary of the method: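 AlphaScreen format: Ni donor beads capture His-SOS1, streptavidin acceptor beads capture biotinylated Kras (E. coli-expressed, GDP-loaded post-purification). Excite 680 nm, read 520-620 nm.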

[2] = test system: Human pancreatic cancer cell line AsPC-1; assay: Measurement of AsPC-1 cell growth inhibition (AsPC-1 CGI); assay type: cell-based; conditions: 96 h
Summary of the method: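 AsPC-1 cells in 15% FBS RPMI-1640 were exposed to test compound for 96 hours at 37° C, with CellTiter-Glo as endpoint.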

T1 sequence (P01116 1-188 isoform P01116-2 G12D): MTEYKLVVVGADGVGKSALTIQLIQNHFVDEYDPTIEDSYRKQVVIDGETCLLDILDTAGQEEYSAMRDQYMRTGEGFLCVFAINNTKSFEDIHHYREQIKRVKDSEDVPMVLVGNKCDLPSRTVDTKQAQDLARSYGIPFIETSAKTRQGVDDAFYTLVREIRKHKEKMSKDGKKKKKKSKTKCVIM

Structure (SMILES) | pIC50 [1] | pIC50 [2]
CC[C@H](C)[C@@H]1NC(=O)[C@H](CC2CCCCC2)N(C)C(=O)C[C@@H](C)NC(=O)[C@H](C(C)C)N(C)C(=O)C2(CCCC2)NC(=O)[C@@H]2CCCN2C(=O)[C@H](CCc2ccc(C(F)(F)F)c(Cl)c2)NC(=O)CN(C)C(=O)[C@H](CC2CCCCC2)N(C)C(=O)CN(C)C(=O)CN(C)C1=O [Compound 285] (cyclo([Ac5c][NMeV][d(β3hA)][NMeCha]I[Sar][Sar][NMeCha][Sar][hPhe(3-Cl-4-CF3)]P)) | 7.28 | 6.30 to 7.00
CC[C@H](C)[C@@H]1NC(=O)[C@H](C)N(C)C(=O)C[C@@H](C(=O)N2CCCCC2)N(C)C(=O)[C@H](C2CCCCC2)N(C)C(=O)C2(CCCC2)NC(=O)[C@@H]2CCCN2C(=O)[C@H](CCc2ccc(F)cc2)NC(=O)CN(C)C(=O)[C@H](CC2CCCCC2)N(C)C(=O)CN(C)C(=O)CN(C)C1=O [Compound 618] ([NMeA]I[Sar][Sar][NMeCha][Sar][hPhe(4-F)]P[Ac5c][NMeChg][NMeD]-Piperidide; lactam N-11) | 8.62 | 6.30 to 7.00
CC[C@H](C)[C@@H]1NC(=O)[C@H](CC(C)C)N(C)C(=O)C[C@@H](C(=O)N2CCCCC2)N(C)C(=O)[C@H](C(C)C)N(C)C(=O)C2(CCCC2)NC(=O)[C@@H]2CCCN2C(=O)[C@H](CCc2ccc(C(F)(F)F)c(Cl)c2)NC(=O)CN(C)C(=O)[C@H](CC(C)C)N(C)C(=O)[C@@H]2CCN2C(=O)[C@H](C)N(C)C1=O [Compound 1803] ([NMeL]I[NMeA][Aze][NMeL][Sar][hPhe(3-Cl-4-CF3)]P[Ac5c][NMeV][NMeD]-Piperidide; lactam N-11) | 8.28 | 6.30 to 7.00
CC[C@H](C)[C@@H]1NC(=O)[C@H](CC(C)C)N(C)C(=O)C[C@@H](C(=O)N2C3CCC2COC3)N(C)C(=O)[C@H]([C@@H](C)CC)N(C)C(=O)C2(CCCC2)NC(=O)[C@@H]2CCCN2C(=O)[C@H](CCc2ccc(C(F)(F)F)c(Cl)c2)NC(=O)CN(C)C(=O)[C@H](CC2CCCCC2)N(C)C(=O)CN(C)C(=O)CN(C)C1=O [Compound 1938] ([NMeL]I[Sar][Sar][NMeCha][Sar][hPhe(3-Cl-4-CF3)]P[Ac5c][NMeI][NMeD]-{3Oxa8azabicyclo(3.2.1)octane}; lactam N-11) | 9.12 | 7.30 to 7.70
CC[C@H](C)[C@@H]1NC(=O)[C@H](CC(C)C)N(C)C(=O)C[C@@H](C(=O)N2CCCCC2)N(C)C(=O)[C@H](C(C)C)N(C)C(=O)C(C)(C)NC(=O)[C@@H]2CCCN2C(=O)[C@H](CCc2ccc(C(F)(F)F)c(Cl)c2)NC(=O)CN(C)C(=O)[C@H](CC2CCCCC2)N(C)C(=O)[C@@H]2CCN2C(=O)[C@H](C)N(C)C1=O [Compound 1751] ([NMeL]I[NMeA][Aze][NMeCha][Sar][hPhe(3-Cl-4-CF3)]P[Aib][NMeV][NMeD]-Piperidide; lactam N-11) | 8.14 | 6.30 to 7.00
CC[C@H](C)[C@@H]1NC(=O)[C@H](CC(C)C)N(C)C(=O)C[C@@H](C(=O)N(C)C)N(C)C(=O)[C@H](C2CCCC2)N(C)C(=O)C2(CCCC2)NC(=O)[C@H](CCc2ccncc2)N(C)C(=O)[C@H](CCc2ccc(C(F)(F)F)c(Cl)c2)NC(=O)CN(C)C(=O)[C@H](CC2CCCCC2)N(C)C(=O)[C@@H]2CCN2C(=O)[C@H](C)N(C)C1=O [Compound 1881] ([NMeL]I[NMeA][Aze][NMeCha][Sar][hPhe(3-Cl-4-CF3)][X3][Ac5c][NMeGly(cPent)][NMeD]-NMe2; lactam N-11) | 8.85 | 7.00 to 7.30
CC[C@H](C)[C@@H]1NC(=O)[C@H](CC(C)C)N(C)C(=O)C[C@@H](C)NC(=O)[C@H](C2CCCC2)N(C)C(=O)C2(CCC2)NC(=O)[C@@H]2CCCN2C(=O)[C@H](CCc2ccc(C(F)(F)F)c(Cl)c2)NC(=O)CN(C)C(=O)[C@H](CC2CCCCC2)N(C)C(=O)CN(C)C(=O)CN(C)C1=O [Compound 1544] (cyclo([Ac4c][NMeGly(cPent)][d(β3hA)][NMeL]I[Sar][Sar][NMeCha][Sar][hPhe(3-Cl-4-CF3)]P)) | 8.25 | 6.30 to 7.00
CC[C@H](C)[C@@H]1NC(=O)[C@H](CC(C)C)N(C)C(=O)C[C@@H](C(=O)N2CCCCC2)N(C)C(=O)[C@H](C2CCCCC2)N(C)C(=O)C2(CCCC2)NC(=O)[C@@H]2CC(F)(F)CN2C(=O)[C@H](CCc2ccc(C(F)(F)F)c(Cl)c2)NC(=O)CN(C)C(=O)[C@H](CC2CCCCC2)N(C)C(=O)CN(C)C(=O)CN(C)C1=O [Compound 48] ([NMeL]I[Sar][Sar][NMeCha][Sar][hPhe(3-Cl-4-CF3)][Pro(4,4-F2)][Ac5c][NMeChg][NMeD]-Piperidide; lactam N-11) | 9.01 | 7.30 to 7.70
CC[C@H](C)[C@@H]1NC(=O)[C@H](CC(C)C)N(C)C(=O)C[C@@H](C(=O)N2CCCC2)N(C)C(=O)[C@H](C2CCCCC2)N(C)C(=O)C2(CCCC2)NC(=O)[C@@H]2CCCN2C(=O)[C@H](CCc2ccc(C(F)(F)F)cc2)NC(=O)CN(C)C(=O)[C@H](CC2CCCCC2)N(C)C(=O)CN(C)C(=O)CN(C)C1=O [Compound 1939] ([NMeL]I[Sar][Sar][NMeCha][Sar][hPhe(4-CF3)]P[Ac5c][NMeChg][NMeD]-Pyrrolidide; lactam N-11) | 9.15 | 6.30 to 7.00
CC[C@H](C)[C@@H]1NC(=O)[C@H](CC(C)C)N(C)C(=O)C[C@@H](C(=O)N2CCCCC2)N(C)C(=O)[C@H](C(C)C)N(C)C(=O)C2(CCC2)NC(=O)[C@@H]2CCCN2C(=O)[C@H](CCc2ccc(C(F)(F)F)c(Cl)c2)NC(=O)CN(C)C(=O)[C@H](CC2CCCCC2)N(C)C(=O)CN(C)C(=O)CN(C)C1=O [Compound 712] ([NMeL]I[Sar][Sar][NMeCha][Sar][hPhe(3-Cl-4-CF3)]P[Ac4c][NMeV][NMeD]-Piperidide; lactam N-11) | 8.57 | 7.00 to 7.30
CC[C@H](C)[C@@H]1NC(=O)[C@H](CC(C)C)N(C)C(=O)C[C@@H](C)N(C)C(=O)[C@H](C(C)C)N(C)C(=O)C2(CCC2)NC(=O)[C@@H]2CCCN2C(=O)[C@H](CCc2ccc(C(F)(F)F)c(Cl)c2)NC(=O)CN(C)C(=O)[C@H](CC2CCCCC2)N(C)C(=O)CN(C)C(=O)CN(C)C1=O [Compound 837] (cyclo([Ac4c][NMeV][NMedβ3hAla][NMeL]I[Sar][Sar][NMeCha][Sar][hPhe(3-Cl-4-CF3)]P)) | 8.22 | 7.00 to 7.30
CC[C@H](C)[C@@H]1NC(=O)[C@H](CC(C)C)N(C)C(=O)C[C@@H](C)NC(=O)[C@H](C2CCCC2)N(C)C(=O)C2(CCCC2)NC(=O)[C@H](C)N(C)C(=O)[C@H](CCc2ccc(C(F)(F)F)c(Cl)c2)NC(=O)CN(C)C(=O)[C@H](Cc2ccc(C)cc2)N(C)C(=O)[C@@H]2CCN2C(=O)[C@H](C)N(C)C1=O [Compound 1153] (cyclo([Ac5c][NMeGly(cPent)][d(β3hA)][NMeL]I[NMeA][Aze][NMePhe(4-Me)][Sar][hPhe(3-Cl-4-CF3)][NMeA])) | 8.60 | 6.30 to 7.00
CCCOC[C@H]1C(=O)N(C)CC(=O)N[C@@H](CCc2ccc(C(F)(F)F)c(Cl)c2)C(=O)N2CCC[C@H]2C(=O)NC2(CCCC2)C(=O)N(C)[C@@H](C2CCCCC2)C(=O)N(C)[C@H](C(=O)N2C3CCC2COC3)CC(=O)N(C)[C@@H](CCC)C(=O)N[C@@H]([C@@H](C)CC)C(=O)N(C)CC(=O)N(C)CC(=O)N1C [Compound 1971] ([NMeNva]I[Sar][Sar][NMeS](Propyl)[Sar][hPhe(3-Cl-4-CF3)]P[Ac5c][NMeChg][NMeD]-{3Oxa8azabicyclo(3.2.1)octane}; lactam N-11) | 8.96 | 6.30 to 7.00
CCC[C@H]1C(=O)N[C@@H]([C@@H](C)CC)C(=O)N(C)CC(=O)N(C)CC(=O)N(C)[C@@H](Cc2ccc(C(F)(F)F)cc2)C(=O)N(C)CC(=O)N[C@@H](CCc2ccc(C(F)(F)F)c(Cl)c2)C(=O)N2CCC[C@H]2C(=O)NC2(CCCC2)C(=O)N(C)[C@@H](C2CCCCC2)C(=O)N(C)[C@H](C(=O)N2CCOCC2)CC(=O)N1C [Compound 1972] ([NMeNva]I[Sar][Sar][NMePhe(4-CF3)][Sar][hPhe(3-Cl-4-CF3)]P[Ac5c][NMeChg][NMeD]-Morpholide; lactam N-11) | 9.43 | 7.30 to 7.70
CCC[C@H]1C(=O)NC2(CCCC2)C(=O)N(C)[C@@H](C2CCCCC2)C(=O)N(C)[C@H](C(=O)N2CCCCC2)CC(=O)N(C)[C@@H](CC(C)C)C(=O)N[C@@H]([C@@H](C)CC)C(=O)N(C)CC(=O)N(C)CC(=O)N(C)[C@@H](CC2CCCCC2)C(=O)N(C)CC(=O)N[C@@H](CCc2ccc(C(F)(F)F)c(Cl)c2)C(=O)N1C [Compound 1005] ([NMeL]I[Sar][Sar][NMeCha][Sar][hPhe(3-Cl-4-CF3)][NMeNva][Ac5c][NMeChg][NMeD]-Piperidide; lactam N-11) |  | 6.30 to 7.00
CC[C@H](C)[C@@H]1NC(=O)[C@H](C)N(C)C(=O)C[C@@H](C)NC(=O)[C@H](C2CCCC2)N(C)C(=O)C2(CCC2)NC(=O)[C@@H]2CCCN2C(=O)[C@H](CCc2ccc(C(F)(F)F)c(Cl)c2)NC(=O)CN(C)C(=O)[C@H](Cc2ccc(C(F)(F)F)cc2)N(C)C(=O)CN(C)C(=O)CN(C)C1=O [Compound 1486] (cyclo([Ac4c][NMeGly(cPent)][d(β3hA)][NMeA]I[Sar][Sar][NMePhe(4-CF3)][Sar][hPhe(3-Cl-4-CF3)]P)) |  | 6.30 to 7.00
CC[C@H](C)[C@@H]1NC(=O)[C@H](CC(C)C)N(C)C(=O)C[C@@H](C(=O)N2CCCC2)N(C)C(=O)[C@H]([C@@H](C)CC)N(C)C(=O)C2(CCCC2)NC(=O)[C@@H]2CCCN2C(=O)[C@H](CCc2ccc(C(F)(F)F)c(F)c2)NC(=O)CN(C)C(=O)[C@H](CC2CCCCC2)N(C)C(=O)[C@@H]2CCN2C(=O)[C@H](C)N(C)C1=O [Compound 868] ([NMeL]I[NMeA][Aze][NMeCha][Sar][hPhe(3-F,4-CF3)]P[Ac5c][NMeI][NMeD]-Pyrrolidide; lactam N-11) |  | 7.30 to 7.70
